Columns and labels:
Conditions in all cases: 48 h
SEM cells [1] = experiment: AUC of viability dose-response curve (% viability x log10 dose units); higher = less sensitive
Outline: (§1)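 Leukemia cells adapted to each medium were seeded at 500 or 1000 cells/well in 1536-well plates and dosed with library compounds in DMSO at 11 threefold doses from 47 μM to 0.79 nM for 48 h at 37°C. CellTiter-Glo One luminescence was normalised per plate to DMSO and cell-free wells, then fitted with a four-parameter log-logistic model over log10 doses. Area under the curve was taken from this fit by the trapezoidal rule, with curves above full viability scaled and curves failing quality control removed.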

NOMO1 [2] = experiment: as above
Outline: as §1

P12-Ichikawa [3] = experiment: as above
Outline: as §1

SEM cells [4] = experiment: cell viability relative to DMSO control; higher = less cytotoxic
Outline: (§2)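 Library compounds in DMSO were pin-dosed in an 11-point threefold series (47 μM to 0.79 nM) onto leukemia cells in 1536-well plates (5 μl). Plates held 500 cells/well of NOMO1 or SEM or 1000 cells/well of P12-Ichikawa, each adapted for at least four passages in each medium. Luminescence was read with CellTiter-Glo One after 48 h at 37°C. Viability means the per-plate percentage relative to DMSO wells, using cell-free wells as background.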

NOMO1 [5] = experiment: as above
Outline: as §2

P12-Ichikawa [6] = experiment: as above
Outline: as §2

CNC1CCC(N(Cc2cccc(-c3ccncc3)c2)C(=O)c2sc3c(F)ccc(F)c3c2Cl)CC1 (centres undefined)
AUC of viability dose-response curve
Conditions	NOMO1 [2]	P12-Ichikawa [3]	SEM cells [1]
HPLM + 10% dialyzed FBS	453	467	455
RPMI 5 mM glucose + 10% FBS	470	466	464
RPMI 5 mM glucose + 10% dialyzed FBS	466	463	445

cell viability [%]
Conditions	NOMO1 [5]	P12-Ichikawa [6]	SEM cells [4]
HPLM + 10% dialyzed FBS, 0.000781 µM	92.9	87.6	80.2
HPLM + 10% dialyzed FBS, 0.00234 µM	111	101	102
HPLM + 10% dialyzed FBS, 0.00702 µM	121	106	106
HPLM + 10% dialyzed FBS, 0.0211 µM	123	105	117
HPLM + 10% dialyzed FBS, 0.0632 µM	127	107	103
HPLM + 10% dialyzed FBS, 0.19 µM	106	109	101
HPLM + 10% dialyzed FBS, 0.569 µM	111	104	102
HPLM + 10% dialyzed FBS, 1.71 µM	113	114	113
HPLM + 10% dialyzed FBS, 5.12 µM	100	101	93.3
HPLM + 10% dialyzed FBS, 15.4 µM	97.8	99.3	85.3
HPLM + 10% dialyzed FBS, 46.1 µM	36.5	71.4	53.2
RPMI 5 mM glucose + 10% FBS, 0.000781 µM	95.3	92.9	97.5
RPMI 5 mM glucose + 10% FBS, 0.00234 µM	108	109	101
RPMI 5 mM glucose + 10% FBS, 0.00702 µM	100	98.2	120
RPMI 5 mM glucose + 10% FBS, 0.0211 µM	106	104	105
RPMI 5 mM glucose + 10% FBS, 0.0632 µM	118	110	109
RPMI 5 mM glucose + 10% FBS, 0.19 µM	105	105	95.9
RPMI 5 mM glucose + 10% FBS, 0.569 µM	117	108	98
RPMI 5 mM glucose + 10% FBS, 1.71 µM	105	100	110
RPMI 5 mM glucose + 10% FBS, 5.12 µM	99	106	99.9
RPMI 5 mM glucose + 10% FBS, 15.4 µM	104	94.9	92.3
RPMI 5 mM glucose + 10% FBS, 46.1 µM	81	72.8	73.3
RPMI 5 mM glucose + 10% dialyzed FBS, 0.000781 µM	87	92.8	93.7
RPMI 5 mM glucose + 10% dialyzed FBS, 0.00234 µM	99.2	102	99.3
RPMI 5 mM glucose + 10% dialyzed FBS, 0.00702 µM	104	105	113
RPMI 5 mM glucose + 10% dialyzed FBS, 0.0211 µM	115	105	107
RPMI 5 mM glucose + 10% dialyzed FBS, 0.0632 µM	112	97.5	104
RPMI 5 mM glucose + 10% dialyzed FBS, 0.19 µM	99.7	105	74.7
RPMI 5 mM glucose + 10% dialyzed FBS, 0.569 µM	110	106	101
RPMI 5 mM glucose + 10% dialyzed FBS, 1.71 µM	100	94.3	91.9
RPMI 5 mM glucose + 10% dialyzed FBS, 5.12 µM	100	103	90.3
RPMI 5 mM glucose + 10% dialyzed FBS, 15.4 µM	108	93.6	85.9
RPMI 5 mM glucose + 10% dialyzed FBS, 46.1 µM	57.4	55.3	69.2

Cc1cnc(NC(=O)Nc2cc(Br)c(C)cc2OC[C@@H]2CNCCO2)cn1
AUC of viability dose-response curve
Conditions	NOMO1 [2]	P12-Ichikawa [3]	SEM cells [1]
HPLM + 10% dialyzed FBS	355	424	328
RPMI 5 mM glucose + 10% FBS	409	435	350
RPMI 5 mM glucose + 10% dialyzed FBS	365	393	326

cell viability [%]
Conditions	NOMO1 [5]	P12-Ichikawa [6]	SEM cells [4]
HPLM + 10% dialyzed FBS, 0.000781 µM	122	119	95
HPLM + 10% dialyzed FBS, 0.00234 µM	130	106	112
HPLM + 10% dialyzed FBS, 0.00702 µM	107	112	110
HPLM + 10% dialyzed FBS, 0.0211 µM	127	113	115
HPLM + 10% dialyzed FBS, 0.0632 µM	130	120	117
HPLM + 10% dialyzed FBS, 0.19 µM	120	106	107
HPLM + 10% dialyzed FBS, 0.569 µM	95.1	104	65.8
HPLM + 10% dialyzed FBS, 1.71 µM	69.5	100	31.8
HPLM + 10% dialyzed FBS, 5.12 µM	30.9	76.7	22.6
HPLM + 10% dialyzed FBS, 15.4 µM	35.5	93.8	24.4
HPLM + 10% dialyzed FBS, 46.1 µM	26.6	48.4	22.5
RPMI 5 mM glucose + 10% FBS, 0.000781 µM	108	108	103
RPMI 5 mM glucose + 10% FBS, 0.00234 µM	120	109	114
RPMI 5 mM glucose + 10% FBS, 0.00702 µM	107	105	78.6
RPMI 5 mM glucose + 10% FBS, 0.0211 µM	107	111	105
RPMI 5 mM glucose + 10% FBS, 0.0632 µM	119	118	109
RPMI 5 mM glucose + 10% FBS, 0.19 µM	117	115	110
RPMI 5 mM glucose + 10% FBS, 0.569 µM	101	111	91
RPMI 5 mM glucose + 10% FBS, 1.71 µM	99	99.1	33
RPMI 5 mM glucose + 10% FBS, 5.12 µM	51	67.9	27.5
RPMI 5 mM glucose + 10% FBS, 15.4 µM	94.2	99.5	33.8
RPMI 5 mM glucose + 10% FBS, 46.1 µM	22.5	34.3	17.5
RPMI 5 mM glucose + 10% dialyzed FBS, 0.000781 µM	111	114	108
RPMI 5 mM glucose + 10% dialyzed FBS, 0.00234 µM	106	120	101
RPMI 5 mM glucose + 10% dialyzed FBS, 0.00702 µM	109	118	95.2
RPMI 5 mM glucose + 10% dialyzed FBS, 0.0211 µM	116	121	106
RPMI 5 mM glucose + 10% dialyzed FBS, 0.0632 µM	121	121	100
RPMI 5 mM glucose + 10% dialyzed FBS, 0.19 µM	108	123	98.1
RPMI 5 mM glucose + 10% dialyzed FBS, 0.569 µM	110	110	66.8
RPMI 5 mM glucose + 10% dialyzed FBS, 1.71 µM	68.1	91	21.9
RPMI 5 mM glucose + 10% dialyzed FBS, 5.12 µM	23.1	53.2	19.7
RPMI 5 mM glucose + 10% dialyzed FBS, 15.4 µM	32.8	82.4	21.8
RPMI 5 mM glucose + 10% dialyzed FBS, 46.1 µM	17.9	23.9	17.2

FC1=CC=C(SC/2=N/N3\C=N/C(=O)/C(=C3/C=C2)C4=C(Cl)C=CC=C4Cl)C(=C1)F
AUC of viability dose-response curve
Conditions	NOMO1 [2]	P12-Ichikawa [3]	SEM cells [1]
HPLM + 10% dialyzed FBS	457	454	409
RPMI 5 mM glucose + 10% FBS	463	436	435
RPMI 5 mM glucose + 10% dialyzed FBS	466	452	398

cell viability [%]
Conditions	NOMO1 [5]	P12-Ichikawa [6]	SEM cells [4]
HPLM + 10% dialyzed FBS, 0.000781 µM	99	100	79
HPLM + 10% dialyzed FBS, 0.00234 µM	108	104	85.9
HPLM + 10% dialyzed FBS, 0.00702 µM	108	114	89.7
HPLM + 10% dialyzed FBS, 0.0211 µM	114	108	91.1
HPLM + 10% dialyzed FBS, 0.0632 µM	112	114	92
HPLM + 10% dialyzed FBS, 0.19 µM	118	102	88.1
HPLM + 10% dialyzed FBS, 0.569 µM	119	117	98.5
HPLM + 10% dialyzed FBS, 1.71 µM	107	114	89.7
HPLM + 10% dialyzed FBS, 5.12 µM	101	114	88.1
HPLM + 10% dialyzed FBS, 15.4 µM	99.2	94.9	76.7
HPLM + 10% dialyzed FBS, 46.1 µM	50.2	33.6	44.9
RPMI 5 mM glucose + 10% FBS, 0.000781 µM	98.8	105	97.5
RPMI 5 mM glucose + 10% FBS, 0.00234 µM	93.2	101	104
RPMI 5 mM glucose + 10% FBS, 0.00702 µM	104	95.7	106
RPMI 5 mM glucose + 10% FBS, 0.0211 µM	118	108	101
RPMI 5 mM glucose + 10% FBS, 0.0632 µM	104	106	108
RPMI 5 mM glucose + 10% FBS, 0.19 µM	115	104	101
RPMI 5 mM glucose + 10% FBS, 0.569 µM	98.3	106	102
RPMI 5 mM glucose + 10% FBS, 1.71 µM	105	98.6	112
RPMI 5 mM glucose + 10% FBS, 5.12 µM	95.3	93.4	93.8
RPMI 5 mM glucose + 10% FBS, 15.4 µM	104	66.2	62.9
RPMI 5 mM glucose + 10% FBS, 46.1 µM	43.7	24.8	20.1
RPMI 5 mM glucose + 10% dialyzed FBS, 0.000781 µM	98.7	96.4	91.7
RPMI 5 mM glucose + 10% dialyzed FBS, 0.00234 µM	114	104	78.6
RPMI 5 mM glucose + 10% dialyzed FBS, 0.00702 µM	105	110	95.7
RPMI 5 mM glucose + 10% dialyzed FBS, 0.0211 µM	103	104	93.4
RPMI 5 mM glucose + 10% dialyzed FBS, 0.0632 µM	101	107	103
RPMI 5 mM glucose + 10% dialyzed FBS, 0.19 µM	106	107	87.5
RPMI 5 mM glucose + 10% dialyzed FBS, 0.569 µM	108	105	83.3
RPMI 5 mM glucose + 10% dialyzed FBS, 1.71 µM	110	120	79.3
RPMI 5 mM glucose + 10% dialyzed FBS, 5.12 µM	108	105	77.2
RPMI 5 mM glucose + 10% dialyzed FBS, 15.4 µM	99	86	73.4
RPMI 5 mM glucose + 10% dialyzed FBS, 46.1 µM	72.5	38.1	33.6

From the supplement of paper PMC11451515
